Assay results from US8415469B2, “Compounds and methods for kinase modulation, and indications therefor” (Plexxikon Inc., priority 2005, dated 2013).

Legend:
Assay type in all cases: biochemical
[1] = biological target: T1, FGFR1 (Homo sapiens, UniProt P11362, C488A/C584S); test: AlphaScreen kinase assay, FGFR1; conditions: read-out: IC50, activity toward kinase FGFR
T1 construct: P1351.pET N6 BI-PTP FGFR A458-E765-X C488A, C584S; made in house; host or cells: E. coli (PTP1B co-expressed)

[2] = biological target: T2, Flt1 (Homo sapiens, UniProt P17948); test: AlphaScreen kinase assay, Flt1; conditions: read-out: IC50, activity toward kinase Flt1
T2 construct: P1826.pETN6 BI-PTP FLT1 M799-D1165-X WT; His6 (N); made in house; host or cells: E. coli (PTP1B co-expressed)
T2 sequence (P17948 with tags, fused parts or gaps): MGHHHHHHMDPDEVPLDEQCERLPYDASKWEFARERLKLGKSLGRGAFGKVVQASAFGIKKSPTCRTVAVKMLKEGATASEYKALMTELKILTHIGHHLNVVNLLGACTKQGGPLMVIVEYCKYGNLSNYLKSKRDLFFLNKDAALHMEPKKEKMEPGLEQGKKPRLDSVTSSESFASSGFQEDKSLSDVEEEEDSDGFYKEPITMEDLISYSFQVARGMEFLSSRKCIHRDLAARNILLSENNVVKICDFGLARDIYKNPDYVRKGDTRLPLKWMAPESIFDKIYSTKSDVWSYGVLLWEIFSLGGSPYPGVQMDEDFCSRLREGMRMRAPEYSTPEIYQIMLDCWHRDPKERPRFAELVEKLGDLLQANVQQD

[3] = biological target: T3, Fms (Homo sapiens, UniProt P07333); test: AlphaScreen kinase assay, Fms; conditions: read-out: IC50, activity toward kinase Fms
T3 construct: purchased Upstate Biotechnology

[4] = biological target: T4, Kdr (Homo sapiens, UniProt P35968); test: Z'-Lyte FRET kinase assay (Invitrogen), Kdr; conditions: read-out: IC50, activity toward kinase Kdr
T4 construct: purchased Invitrogen (assay run by Invitrogen)

[5] = biological target: T5, Kit (Homo sapiens, UniProt P10721); test: AlphaScreen kinase assay, Kit; conditions: read-out: IC50, activity toward kinase Kit
T5 construct: P1332.N6 BI PTP KIT M552-K948-X COD; His6 (N); made in house; host or cells: E. coli (PTP1B co-expressed)

[6] = biological target: T6, Ret (Homo sapiens, UniProt P07949); test: AlphaScreen kinase assay, Ret; conditions: read-out: IC50, activity toward kinase Ret
T6 construct: P1378.pET-SF BI-PTP RET H661-R1012 HIS; made in house
T6 sequence (P07949 with tags, fused parts or gaps): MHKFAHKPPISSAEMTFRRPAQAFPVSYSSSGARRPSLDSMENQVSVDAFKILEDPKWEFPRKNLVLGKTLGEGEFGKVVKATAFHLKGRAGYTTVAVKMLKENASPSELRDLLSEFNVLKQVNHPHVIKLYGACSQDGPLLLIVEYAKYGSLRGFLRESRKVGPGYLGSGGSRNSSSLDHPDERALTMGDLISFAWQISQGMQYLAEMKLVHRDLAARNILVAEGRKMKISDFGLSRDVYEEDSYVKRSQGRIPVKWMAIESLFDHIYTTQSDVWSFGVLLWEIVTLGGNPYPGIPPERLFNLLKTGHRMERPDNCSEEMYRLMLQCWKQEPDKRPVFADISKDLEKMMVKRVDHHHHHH

[7] = biological target: T7, Jnk3 (Homo sapiens, UniProt P53779); test: AlphaScreen kinase assay, Jnk3; conditions: read-out: IC50, activity toward kinase Jnk3
T7 construct: purchased Upstate Biotechnology

[8] = biological target: T8, B-Raf V600E (Homo sapiens, UniProt P15056, V600E); test: AlphaScreen kinase assay, B-Raf V600E; conditions: read-out: IC50, activity toward kinase B-Raf V600E
T8 construct: P4254. pFastBacBD-CDC37 BRAF D437-K722-X, V600E; His6 with pFastBac HT leader (TEV site) (N); made in house; host or cells: Sf9 (baculovirus; chaperone CDC37 co-expressed)

[9] = biological target: T9, Jnk1 (Homo sapiens, UniProt P45983); test: AlphaScreen kinase assay, Jnk1; conditions: read-out: IC50, activity toward kinase Jnk1
T9 construct: purchased Upstate Biotechnology

[10] = biological target: T10, B-Raf (Homo sapiens, UniProt P15056); test: AlphaScreen kinase assay, B-Raf; conditions: read-out: IC50, activity toward kinase B-Raf
T10 construct: purchased Upstate Biotechnology

[11] = biological target: T11, c-Raf-1 (Homo sapiens, UniProt P04049); test: AlphaScreen kinase assay, c-Raf-1; conditions: read-out: IC50, activity toward kinase c-Raf-1
T11 construct: purchased Upstate Biotechnology

T10 sequence (P15056 whole entry): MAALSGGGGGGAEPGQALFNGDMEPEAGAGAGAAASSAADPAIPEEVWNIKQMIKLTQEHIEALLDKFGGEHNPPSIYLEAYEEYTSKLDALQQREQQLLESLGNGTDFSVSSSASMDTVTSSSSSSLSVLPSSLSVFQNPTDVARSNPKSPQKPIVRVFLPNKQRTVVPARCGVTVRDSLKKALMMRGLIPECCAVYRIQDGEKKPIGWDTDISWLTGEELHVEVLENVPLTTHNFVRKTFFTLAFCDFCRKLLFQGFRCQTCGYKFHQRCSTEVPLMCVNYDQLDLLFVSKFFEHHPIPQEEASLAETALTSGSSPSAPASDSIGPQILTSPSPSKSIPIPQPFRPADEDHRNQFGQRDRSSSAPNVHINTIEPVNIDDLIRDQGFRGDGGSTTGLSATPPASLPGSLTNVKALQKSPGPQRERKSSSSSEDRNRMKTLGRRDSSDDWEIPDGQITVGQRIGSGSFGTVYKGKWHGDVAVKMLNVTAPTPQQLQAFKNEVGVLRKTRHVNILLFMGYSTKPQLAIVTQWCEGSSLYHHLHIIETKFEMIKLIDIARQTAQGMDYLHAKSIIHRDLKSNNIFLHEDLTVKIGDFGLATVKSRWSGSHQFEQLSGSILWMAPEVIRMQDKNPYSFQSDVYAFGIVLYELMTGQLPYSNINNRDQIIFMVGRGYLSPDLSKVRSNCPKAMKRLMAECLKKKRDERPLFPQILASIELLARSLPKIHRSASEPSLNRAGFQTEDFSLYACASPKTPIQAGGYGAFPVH
T1 sequence (P11362 458-765 C488A/C584S): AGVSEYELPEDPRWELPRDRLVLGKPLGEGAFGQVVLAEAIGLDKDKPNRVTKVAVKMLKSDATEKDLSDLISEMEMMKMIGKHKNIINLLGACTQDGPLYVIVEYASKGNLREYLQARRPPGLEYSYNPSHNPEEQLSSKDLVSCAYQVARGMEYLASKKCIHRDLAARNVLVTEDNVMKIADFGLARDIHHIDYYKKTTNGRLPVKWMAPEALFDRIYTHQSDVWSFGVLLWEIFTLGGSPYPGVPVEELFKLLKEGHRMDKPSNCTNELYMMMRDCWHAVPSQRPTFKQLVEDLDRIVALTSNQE
T5 sequence (P10721 with tags, fused parts or gaps): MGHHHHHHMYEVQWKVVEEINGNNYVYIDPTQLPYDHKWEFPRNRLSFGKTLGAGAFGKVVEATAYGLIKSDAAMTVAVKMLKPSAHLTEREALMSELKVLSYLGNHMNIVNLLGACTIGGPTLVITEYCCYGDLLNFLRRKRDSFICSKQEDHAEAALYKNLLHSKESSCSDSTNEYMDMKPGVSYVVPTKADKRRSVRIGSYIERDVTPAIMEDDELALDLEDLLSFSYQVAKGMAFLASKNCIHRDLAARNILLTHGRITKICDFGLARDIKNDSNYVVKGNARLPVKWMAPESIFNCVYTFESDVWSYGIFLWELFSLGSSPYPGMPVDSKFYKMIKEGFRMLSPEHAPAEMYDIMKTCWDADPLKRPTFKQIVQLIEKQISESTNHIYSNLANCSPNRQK
T7 sequence (P53779 whole entry): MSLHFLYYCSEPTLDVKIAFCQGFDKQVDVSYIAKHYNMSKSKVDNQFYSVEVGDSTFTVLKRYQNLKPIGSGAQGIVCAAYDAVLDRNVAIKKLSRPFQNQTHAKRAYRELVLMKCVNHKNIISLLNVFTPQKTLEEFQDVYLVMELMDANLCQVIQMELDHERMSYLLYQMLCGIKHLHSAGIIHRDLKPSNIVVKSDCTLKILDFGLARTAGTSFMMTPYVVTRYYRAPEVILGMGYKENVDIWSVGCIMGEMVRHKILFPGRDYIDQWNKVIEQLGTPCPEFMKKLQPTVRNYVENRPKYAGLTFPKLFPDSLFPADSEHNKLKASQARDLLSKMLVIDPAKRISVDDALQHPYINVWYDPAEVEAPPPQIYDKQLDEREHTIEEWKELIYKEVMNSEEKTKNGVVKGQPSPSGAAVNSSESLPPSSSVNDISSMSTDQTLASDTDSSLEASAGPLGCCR
T3 sequence (P07333 20-972): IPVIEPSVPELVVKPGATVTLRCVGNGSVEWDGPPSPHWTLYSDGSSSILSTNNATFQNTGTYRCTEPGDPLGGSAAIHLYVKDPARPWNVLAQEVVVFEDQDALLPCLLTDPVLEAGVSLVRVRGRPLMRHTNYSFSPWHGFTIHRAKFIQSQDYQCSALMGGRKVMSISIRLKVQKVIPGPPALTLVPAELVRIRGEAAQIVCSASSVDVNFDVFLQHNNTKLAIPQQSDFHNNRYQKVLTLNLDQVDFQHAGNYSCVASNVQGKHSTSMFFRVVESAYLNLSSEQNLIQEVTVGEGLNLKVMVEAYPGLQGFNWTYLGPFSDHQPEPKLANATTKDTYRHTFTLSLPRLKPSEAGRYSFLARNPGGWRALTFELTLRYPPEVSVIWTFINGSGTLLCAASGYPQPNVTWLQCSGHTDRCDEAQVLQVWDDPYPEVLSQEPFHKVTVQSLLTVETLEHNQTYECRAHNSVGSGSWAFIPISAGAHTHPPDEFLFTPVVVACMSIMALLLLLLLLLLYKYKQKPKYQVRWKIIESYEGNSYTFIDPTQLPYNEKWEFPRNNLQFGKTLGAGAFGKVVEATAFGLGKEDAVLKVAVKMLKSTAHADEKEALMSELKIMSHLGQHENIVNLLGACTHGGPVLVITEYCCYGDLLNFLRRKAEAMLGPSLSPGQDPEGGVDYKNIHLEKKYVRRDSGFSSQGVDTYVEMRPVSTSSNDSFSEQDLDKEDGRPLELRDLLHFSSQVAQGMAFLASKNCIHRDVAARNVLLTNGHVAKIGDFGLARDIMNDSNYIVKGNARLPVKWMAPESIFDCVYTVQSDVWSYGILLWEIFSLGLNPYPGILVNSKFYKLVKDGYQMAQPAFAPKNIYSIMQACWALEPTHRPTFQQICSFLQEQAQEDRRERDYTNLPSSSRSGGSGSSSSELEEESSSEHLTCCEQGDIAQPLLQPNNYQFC
T9 sequence (P45983 whole entry): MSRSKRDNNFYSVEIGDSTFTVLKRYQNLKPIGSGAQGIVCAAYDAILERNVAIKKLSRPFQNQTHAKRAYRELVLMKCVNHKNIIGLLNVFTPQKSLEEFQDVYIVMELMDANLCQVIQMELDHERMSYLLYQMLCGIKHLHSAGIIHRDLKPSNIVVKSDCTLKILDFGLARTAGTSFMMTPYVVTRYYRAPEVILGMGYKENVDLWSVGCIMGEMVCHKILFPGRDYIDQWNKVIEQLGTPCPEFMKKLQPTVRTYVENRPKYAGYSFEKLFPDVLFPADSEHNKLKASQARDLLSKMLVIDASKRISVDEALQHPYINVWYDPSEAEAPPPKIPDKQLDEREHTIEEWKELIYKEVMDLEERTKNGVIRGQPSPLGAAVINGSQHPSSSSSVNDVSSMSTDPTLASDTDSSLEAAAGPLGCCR
T8 sequence (P15056 with tags, fused parts or gaps V600E): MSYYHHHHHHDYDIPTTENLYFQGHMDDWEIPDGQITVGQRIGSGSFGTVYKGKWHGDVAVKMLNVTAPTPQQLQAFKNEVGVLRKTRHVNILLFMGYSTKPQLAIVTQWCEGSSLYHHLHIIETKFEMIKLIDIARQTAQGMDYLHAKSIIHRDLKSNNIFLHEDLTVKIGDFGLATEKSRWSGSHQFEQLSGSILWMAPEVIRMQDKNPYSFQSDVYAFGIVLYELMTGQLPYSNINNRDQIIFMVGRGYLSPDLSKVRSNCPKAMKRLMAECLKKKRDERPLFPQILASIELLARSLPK
T4 sequence (P35968 20-1356): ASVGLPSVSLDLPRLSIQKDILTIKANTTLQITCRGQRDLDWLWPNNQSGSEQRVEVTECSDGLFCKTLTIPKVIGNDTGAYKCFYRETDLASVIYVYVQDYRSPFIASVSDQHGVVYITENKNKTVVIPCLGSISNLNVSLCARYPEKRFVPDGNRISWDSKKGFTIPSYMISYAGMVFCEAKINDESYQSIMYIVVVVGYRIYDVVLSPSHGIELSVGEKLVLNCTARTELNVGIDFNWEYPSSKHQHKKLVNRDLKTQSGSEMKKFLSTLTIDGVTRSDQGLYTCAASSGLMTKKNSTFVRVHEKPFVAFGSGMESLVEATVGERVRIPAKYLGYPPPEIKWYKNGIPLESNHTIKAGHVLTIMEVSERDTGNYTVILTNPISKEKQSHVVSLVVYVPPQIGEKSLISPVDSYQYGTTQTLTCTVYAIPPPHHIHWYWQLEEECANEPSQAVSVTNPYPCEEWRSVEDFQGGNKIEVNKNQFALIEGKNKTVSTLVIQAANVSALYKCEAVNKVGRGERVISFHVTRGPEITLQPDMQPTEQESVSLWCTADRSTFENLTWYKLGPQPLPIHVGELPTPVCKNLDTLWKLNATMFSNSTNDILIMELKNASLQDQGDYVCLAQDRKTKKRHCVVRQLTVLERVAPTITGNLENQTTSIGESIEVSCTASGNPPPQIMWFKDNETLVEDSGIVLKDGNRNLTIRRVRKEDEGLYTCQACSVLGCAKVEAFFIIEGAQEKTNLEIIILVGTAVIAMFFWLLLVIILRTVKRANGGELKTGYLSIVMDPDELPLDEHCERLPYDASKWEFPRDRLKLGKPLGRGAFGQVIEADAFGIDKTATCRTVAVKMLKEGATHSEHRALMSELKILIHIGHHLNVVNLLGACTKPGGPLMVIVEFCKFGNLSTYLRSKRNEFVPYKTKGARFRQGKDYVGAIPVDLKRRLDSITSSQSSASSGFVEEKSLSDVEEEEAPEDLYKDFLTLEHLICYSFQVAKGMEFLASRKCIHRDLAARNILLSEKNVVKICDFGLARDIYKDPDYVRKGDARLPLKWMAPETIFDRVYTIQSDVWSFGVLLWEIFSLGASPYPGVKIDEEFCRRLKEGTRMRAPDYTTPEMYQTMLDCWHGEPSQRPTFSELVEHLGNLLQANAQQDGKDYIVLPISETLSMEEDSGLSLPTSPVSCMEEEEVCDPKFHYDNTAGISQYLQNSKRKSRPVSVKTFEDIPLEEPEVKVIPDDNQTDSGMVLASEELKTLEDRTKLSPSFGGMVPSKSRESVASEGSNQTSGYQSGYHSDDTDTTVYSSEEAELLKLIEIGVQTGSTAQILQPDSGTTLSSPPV

| Compound | IC50 [1] | IC50 [2] | IC50 [3] | IC50 [5] | IC50 [7] | IC50 [8] | further results |
| --- | --- | --- | --- | --- | --- | --- | --- |
| COc1ccc(F)c(C(=O)c2c[nH]c3ncccc23)c1 [Compound P-0103] | ≤ 10 µM | ≤ 10 µM | ≤ 10 µM | ≤ 10 µM |  |  | IC50 [4]: ≤ 10 µM; IC50 [6]: ≤ 10 µM |
| O=C(c1ccccc1O)c1c[nH]c2ncc(Br)cc12 [Compound P-0263] |  |  |  | ≤ 10 µM | ≤ 10 µM |  |  |
| COc1ccc(CNc2ccc(Cc3c[nH]c4ncccc34)cn2)cc1 [Compound P-0274] | ≤ 10 µM | ≤ 10 µM | ≤ 10 µM |  |  | ≤ 10 µM | IC50 [4]: ≤ 10 µM |
| COc1ccc(Cc2c[nH]c3nccc(-c4ccsc4)c23)cn1 [Compound P-0289] | ≤ 10 µM |  |  |  |  |  | IC50 [4]: ≤ 10 µM; IC50 [6]: ≤ 10 µM |
| c1cc(Cc2c[nH]c3ncccc23)cc(OCCOC2CCCCO2)c1 (stereo not shown) [Compound P-0326] | ≤ 10 µM | ≤ 10 µM |  | ≤ 10 µM |  |  | IC50 [4]: ≤ 10 µM |
| COc1cccc(Cc2c[nH]c3nccc(Br)c23)n1 [Compound P-0339] | ≤ 10 µM |  |  |  |  |  | IC50 [4]: ≤ 10 µM; IC50 [6]: ≤ 10 µM |
| COc1cccc(C(=O)c2c[nH]c3ncc(-c4ccccc4)cc23)c1 [Compound P-0371] | ≤ 10 µM | ≤ 10 µM |  | ≤ 10 µM | ≤ 10 µM |  | IC50 [6]: ≤ 10 µM |
| c1csc(-c2ccnc3[nH]ccc23)c1 [Compound P-0431] |  |  |  |  |  |  | IC50 [9]: ≤ 10 µM |
| c1coc(-c2c[nH]c3ncccc23)c1 [Compound P-0455] |  | ≤ 10 µM |  |  |  |  | IC50 [4]: ≤ 10 µM |
| O=C(c1ccc(-c2cnc3[nH]ccc3c2)cc1)N1CCCC1 [Compound P-0625] |  |  |  | ≤ 10 µM | ≤ 10 µM |  |  |
| Cc1cc(C(=O)c2c[nH]c3ncc(-c4ccsc4)cc23)no1 [Compound P-0640] | ≤ 10 µM | ≤ 10 µM |  | ≤ 10 µM | ≤ 10 µM |  | IC50 [4]: ≤ 10 µM; IC50 [6]: ≤ 10 µM |
| NC(=O)c1ccc(-c2cnc3[nH]ccc3c2)cc1 [Compound P-0659] |  |  |  | ≤ 10 µM | ≤ 10 µM |  | IC50 [6]: ≤ 10 µM |
| Oc1ccc(Cc2c[nH]c3ncc(-c4ccsc4)cc23)cc1O [Compound P-0683] | ≤ 10 µM | ≤ 10 µM |  | ≤ 10 µM | ≤ 10 µM | ≤ 10 µM | IC50 [10]: ≤ 10 µM; IC50 [4]: ≤ 10 µM; IC50 [6]: ≤ 10 µM |
| Oc1cccc(C(O)c2c[nH]c3ncc(-c4cccs4)cc23)c1 (stereo not shown) [Compound P-0710] | ≤ 10 µM |  |  |  | ≤ 10 µM | ≤ 10 µM | IC50 [6]: ≤ 10 µM |
| O=C(c1ccccc1O)c1c[nH]c2ncc(-c3cccs3)cc12 [Compound P-0757] |  | ≤ 10 µM |  | ≤ 10 µM | ≤ 10 µM |  | IC50 [6]: ≤ 10 µM |
| OC(c1ccc(OCc2nc3ccccc3[nH]2)c(F)c1)c1c[nH]c2ncccc12 (stereo not shown) [Compound P-1898] |  |  |  |  |  |  | IC50 [9]: ≤ 10 µM |

Further lines, with some results ahead:

| IC50 [1] | IC50 [2] | IC50 [3] | IC50 [5] | IC50 [7] | IC50 [8] | Compound | further results |
| --- | --- | --- | --- | --- | --- | --- | --- |
|  | ≤ 10 µM |  |  |  | ≤ 10 µM | O=[N+]([O-])c1cc(S(=O)(=O)NCc2c[nH]c3ncccc23)sc1Cl [Compound P-0777] | IC50 [4]: ≤ 10 µM |
|  |  |  | ≤ 10 µM |  |  | Cc1cc(C(=O)c2c[nH]c3ncc(-c4cccc(N)c4)cc23)no1 [Compound P-0796] | IC50 [4]: ≤ 10 µM; IC50 [6]: ≤ 10 µM |
|  |  |  |  | ≤ 10 µM |  | CC(=O)Nc1cccc(Nc2cnc3[nH]ccc3c2)c1 [Compound P-1032] |  |
|  |  |  |  | ≤ 10 µM |  | c1ccc2sc(-c3cnc4[nH]ccc4c3)cc2c1 [Compound P-1087] |  |
|  |  |  |  | ≤ 10 µM |  | Clc1ccc(-c2cnc3[nH]ccc3c2)s1 [Compound P-1088] |  |
|  |  |  |  | ≤ 10 µM |  | COc1ccc(Nc2ccc3cc[nH]c3n2)cc1 [Compound P-1355, (4-Methoxy-phenyl)-(1H-pyrrolo[2,3-b]pyridin-6-yl)-amine] |  |
|  |  | ≤ 10 µM | ≤ 10 µM | ≤ 10 µM |  | Clc1cccc(Nc2c[nH]c3ncccc23)c1 [Compound P-1489, (3-Chloro-phenyl)-(1H-pyrrolo[2,3-b]pyridin-3-yl)-amine] |  |
|  |  | ≤ 10 µM | ≤ 10 µM | ≤ 10 µM |  | COc1cccc(Nc2c[nH]c3ncccc23)c1 [Compound P-1490, (3-Methoxy-phenyl)-(1H-pyrrolo[2,3-b]pyridin-3-yl)-amine] |  |
|  | ≤ 10 µM | ≤ 10 µM | ≤ 10 µM | ≤ 10 µM | ≤ 10 µM | c1ccc(COc2ccccc2Nc2c[nH]c3ncccc23)cc1 [Compound P-1505, (2-Benzyloxy-phenyl)-(1H-pyrrolo[2,3-b]pyridin-3-yl)-amine] |  |
| ≤ 10 µM | ≤ 10 µM | ≤ 10 µM | ≤ 10 µM | ≤ 10 µM | ≤ 10 µM | c1cncc(-c2cnc3[nH]cc(Cc4ccc5c(c4)OCCO5)c3c2)c1 [Compound P-1529, 3-(2,3-Dihydro-benzo[1,4]dioxin-6-ylmethyl)-5-pyridin-3-yl-1H-pyrrolo[2,3-b]pyridine] | IC50 [10]: ≤ 10 µM |
| ≤ 10 µM |  |  |  | ≤ 10 µM | ≤ 10 µM | COc1cnc2[nH]cc(Sc3ccccn3)c2c1 [Compound P-1561] |  |
|  |  | ≤ 10 µM |  |  | ≤ 10 µM | CCCS(=O)(=O)Nc1cccc(C(=O)c2c[nH]c3ncc(-c4cccnc4)cc23)c1C [Compound P-1631] | IC50 [10]: ≤ 10 µM; IC50 [9]: ≤ 10 µM |
|  |  | ≤ 10 µM |  |  | ≤ 10 µM | CCCCNC(=O)Nc1ccc(F)c(C(=O)c2c[nH]c3ncc(Br)cc23)c1 [Compound P-1637, 1-[3-(5-Bromo-1H-pyrrolo[2,3-b]pyridine-3-carbonyl)-4-fluoro-phenyl]-3-butyl-urea] | IC50 [10]: ≤ 10 µM; IC50 [9]: ≤ 10 µM |
|  |  | ≤ 10 µM | ≤ 10 µM | ≤ 10 µM | ≤ 10 µM | O=C(Nc1ccccc1)Nc1cccc(C(=O)c2c[nH]c3ncccc23)c1 [Compound P-1703, 1-Phenyl-3-[3-(1H-pyrrolo[2,3-b]pyridine-3-carbonyl)-phenyl]-urea] | IC50 [10]: ≤ 10 µM |
|  |  | ≤ 10 µM | ≤ 10 µM | ≤ 10 µM | ≤ 10 µM | O=C(Nc1ccc(F)cc1)Nc1cccc(C(=O)c2c[nH]c3ncccc23)c1 [Compound P-1704, 1-(4-Fluoro-phenyl)-3-[3-(1H-pyrrolo[2,3-b]pyridine-3-carbonyl)-phenyl]-urea] | IC50 [10]: ≤ 10 µM |
|  |  | ≤ 10 µM | ≤ 10 µM | ≤ 10 µM | ≤ 10 µM | O=C(Nc1cccc(C(=O)c2c[nH]c3ncccc23)c1)Nc1ccc(C(F)(F)F)cc1Cl [Compound P-1713, 1-(2-Chloro-4-trifluoromethyl-phenyl)-3-[3-(1H-pyrrolo[2,3-b]pyridine-3-carbonyl)-phenyl]-urea] | IC50 [10]: ≤ 10 µM; IC50 [11]: ≤ 10 µM |
|  |  | ≤ 10 µM |  | ≤ 10 µM | ≤ 10 µM | O=C(Nc1cccc(F)c1)Nc1cccc(C(=O)c2c[nH]c3ncccc23)c1 [Compound P-1716, 1-(3-Fluoro-phenyl)-3-[3-(1H-pyrrolo[2,3-b]pyridine-3-carbonyl)-phenyl]-urea] | IC50 [10]: ≤ 10 µM |
|  |  |  |  |  | ≤ 10 µM | Cc1ccc(S(=O)(=O)Nc2ccc(F)c(C(=O)c3c[nH]c4ncc(Cl)cc34)c2F)cc1 [Compound P-1842, N-[3-(5-Chloro-1H-pyrrolo[2,3-b]pyridine-3-carbonyl)-2,4-difluoro-phenyl]-4-methyl-benzenesulfonamide] | IC50 [10]: ≤ 10 µM; IC50 [9]: ≤ 10 µM |
